Data from ChEMBL document CHEMBL1141103, “5-Cyanopyrimidine derivatives as a novel class of potent, selective, and orally active inhibitors of p38alpha MAP kinase” (J Med Chem, 2005).

What was measured:
PBMC = assay: Concentration required to inhibit LPS-induced TNFalpha production in human peripheral blood mononuclear cells; n=3; format: functional, cell-based
[1] = Clearance of compound in mice after intravenous administration; format: ADME, organism-based; conditions: mouse, in vivo
[2] = In vitro permeability of compound into Caco-2 cells; format: ADME, cell-based; conditions: human, read-out: Permeability
[3] = Metabolic rate as a measure of compound stability in human liver microsomes; format: ADME, Microsome
[4] = Oral bioavailability of compound after administration of a solution dose in PEG400; format: ADME, organism-based; conditions: eutheria, in vivo
PHA-Ly = assay: In vitro cytotoxic effect of compound (30 uM) on PHA blast cells compared to control after 24 hours of treatment; format: functional, Homo sapiens
[5] = Metabolic rate as a measure of compound stability in rat liver microsomes; format: ADME, Microsome
[6] = Half-life of compound evaluated in mice after intravenous administration; format: ADME, organism-based; conditions: mouse, in vivo
MAP kinase p38 = MAP kinase p38 (Homo sapiens, UniProt O15264+Q15759+Q16539+P53778); assay: Binding affinity for human p38 MAP kinase expressed in Escherichia coli using [gamma-33P]ATP; n=4
[7] = target: Dual specificity mitogen-activated protein kinase kinase 1 (Homo sapiens, UniProt Q02750); assay: Inhibitory concentration against MEK
[8] = target: Insulin-like growth factor 1 receptor (Homo sapiens, UniProt P08069); assay: Inhibitory concentration against IGF-IR
[9] = target: Glycogen synthase kinase-3 (Homo sapiens, UniProt P49840+P49841); assay: Inhibitory concentration against GSK-3; format: protein assay
[10] = target: RAF proto-oncogene serine/threonine-protein kinase (Homo sapiens, UniProt P04049); assay: Inhibitory concentration against Raf
[11] = target: Fibroblast growth factor receptor (Homo sapiens, UniProt P22607+P11362+P22455+P21802); assay: Inhibitory concentration against FGF receptor; format: protein assay
[12] = target: Cyclin-dependent kinase 2 (Homo sapiens, UniProt P24941); assay: Inhibitory concentration against CDK2
[13] = target: Inhibitor of NF-kappa-B kinase (IKK) (Homo sapiens, UniProt O14920+O15111+Q9Y6K9); assay: Inhibitory concentration against IKK; format: protein-complex assay
[14] = target: MAP kinase-activated protein kinase 2 (Homo sapiens, UniProt P49137); assay: Inhibitory concentration against MK2
[15] = target: Mitogen-activated protein kinase 1 (Homo sapiens, UniProt P28482); assay: Inhibitory concentration against ERK
[16] = target: Receptor tyrosine-protein kinase erbB-2 (Homo sapiens, UniProt P04626); assay: Inhibitory concentration against HER2 (ErbB2)
[17] = target: Tyrosine-protein kinase Lck (Homo sapiens, UniProt P06239); assay: Inhibitory concentration against Lck
[18] = target: Tyrosine-protein kinase SYK (Homo sapiens, UniProt P43405); assay: Inhibitory concentration against Syk
Protein kinase C (PKC) = assay: Inhibitory concentration against PKC; format: protein assay
[19] = target: Tyrosine-protein kinase JAK3 (Homo sapiens, UniProt P52333); assay: Inhibitory concentration against JAK3
[20] = target: Vascular endothelial growth factor receptor 2 (Homo sapiens, UniProt P35968); assay: Inhibitory concentration against KDR
[21] = target: Tyrosine-protein kinase ITK/TSK (Homo sapiens, UniProt Q08881); assay: Inhibitory concentration against Itk
[22] = target: Mitogen-activated protein kinase 11 (Homo sapiens, UniProt Q15759); assay: Inhibitory concentration against p38 beta
[23] = target: Serine/threonine-protein kinase AKT (Homo sapiens, UniProt P31751+Q9Y243+P31749); assay: Inhibitory concentration against Akt; format: protein assay
[24] = target: Mitogen-activated protein kinase 13 (Homo sapiens, UniProt O15264); assay: Inhibitory concentration against p38 delta
[25] = target: Hepatocyte growth factor receptor (Homo sapiens, UniProt P08581); assay: Inhibitory concentration against Met
[26] = target: cAMP-dependent protein kinase (PKA) (Homo sapiens, UniProt P22694+P17612+P22612); assay: Inhibitory concentration against PKA; format: protein assay
[27] = target: Mitogen-activated protein kinase 12 (Homo sapiens, UniProt P53778); assay: Inhibitory concentration against p38 gamma
[28] = target: Mitogen-activated protein kinase 14 (Homo sapiens, UniProt Q16539); assay: Inhibitory concentration against p38 alpha
Sequence of Mitogen-activated protein kinase 14 (Q16539 whole entry): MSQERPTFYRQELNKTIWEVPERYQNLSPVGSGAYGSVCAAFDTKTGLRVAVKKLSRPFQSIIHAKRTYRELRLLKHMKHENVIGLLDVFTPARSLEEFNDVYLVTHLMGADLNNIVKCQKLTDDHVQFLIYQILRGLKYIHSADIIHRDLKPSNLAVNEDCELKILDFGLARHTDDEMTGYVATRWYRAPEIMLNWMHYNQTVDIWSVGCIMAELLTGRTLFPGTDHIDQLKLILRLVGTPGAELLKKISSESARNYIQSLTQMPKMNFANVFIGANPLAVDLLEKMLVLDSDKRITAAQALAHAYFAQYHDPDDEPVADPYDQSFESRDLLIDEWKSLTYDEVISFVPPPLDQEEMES

Sequence of Insulin-like growth factor 1 receptor (P08069 31-736 limits assumed): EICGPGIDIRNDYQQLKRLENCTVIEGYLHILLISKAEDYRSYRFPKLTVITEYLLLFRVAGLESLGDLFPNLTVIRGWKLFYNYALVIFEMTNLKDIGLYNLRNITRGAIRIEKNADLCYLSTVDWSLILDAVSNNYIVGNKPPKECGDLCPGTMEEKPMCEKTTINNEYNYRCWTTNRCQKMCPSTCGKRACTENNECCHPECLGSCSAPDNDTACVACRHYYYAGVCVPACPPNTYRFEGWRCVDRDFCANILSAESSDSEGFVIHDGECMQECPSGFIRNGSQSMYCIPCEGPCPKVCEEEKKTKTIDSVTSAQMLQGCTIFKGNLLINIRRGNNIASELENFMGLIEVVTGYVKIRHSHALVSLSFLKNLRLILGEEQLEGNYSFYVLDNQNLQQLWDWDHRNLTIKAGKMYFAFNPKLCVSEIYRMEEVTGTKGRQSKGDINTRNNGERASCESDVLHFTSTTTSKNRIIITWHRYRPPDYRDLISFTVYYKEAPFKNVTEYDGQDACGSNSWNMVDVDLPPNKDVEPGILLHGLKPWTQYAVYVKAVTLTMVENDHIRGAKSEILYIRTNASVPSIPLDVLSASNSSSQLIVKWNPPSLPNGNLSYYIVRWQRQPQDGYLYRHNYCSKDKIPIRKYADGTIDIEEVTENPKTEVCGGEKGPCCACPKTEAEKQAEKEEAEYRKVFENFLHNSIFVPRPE
Sequence of Insulin-like growth factor 1 receptor (P08069 741-1367 limits assumed): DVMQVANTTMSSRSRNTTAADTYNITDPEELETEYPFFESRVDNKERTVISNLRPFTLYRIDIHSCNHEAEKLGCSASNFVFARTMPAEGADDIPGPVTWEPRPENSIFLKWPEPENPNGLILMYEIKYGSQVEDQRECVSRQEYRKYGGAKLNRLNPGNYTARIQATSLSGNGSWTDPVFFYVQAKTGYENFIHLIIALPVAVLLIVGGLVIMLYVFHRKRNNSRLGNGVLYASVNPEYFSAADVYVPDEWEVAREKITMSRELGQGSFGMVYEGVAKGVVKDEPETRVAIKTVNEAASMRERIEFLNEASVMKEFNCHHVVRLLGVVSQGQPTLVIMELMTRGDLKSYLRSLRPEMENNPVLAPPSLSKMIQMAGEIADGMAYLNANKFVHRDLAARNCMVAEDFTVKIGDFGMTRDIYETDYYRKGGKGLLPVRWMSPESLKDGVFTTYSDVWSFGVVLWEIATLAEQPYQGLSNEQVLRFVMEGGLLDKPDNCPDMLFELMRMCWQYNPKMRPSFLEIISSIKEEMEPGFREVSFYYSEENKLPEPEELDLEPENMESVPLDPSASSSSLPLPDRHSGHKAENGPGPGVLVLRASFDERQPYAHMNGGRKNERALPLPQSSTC
Sequence of Dual specificity mitogen-activated protein kinase kinase 1 (Q02750 whole entry): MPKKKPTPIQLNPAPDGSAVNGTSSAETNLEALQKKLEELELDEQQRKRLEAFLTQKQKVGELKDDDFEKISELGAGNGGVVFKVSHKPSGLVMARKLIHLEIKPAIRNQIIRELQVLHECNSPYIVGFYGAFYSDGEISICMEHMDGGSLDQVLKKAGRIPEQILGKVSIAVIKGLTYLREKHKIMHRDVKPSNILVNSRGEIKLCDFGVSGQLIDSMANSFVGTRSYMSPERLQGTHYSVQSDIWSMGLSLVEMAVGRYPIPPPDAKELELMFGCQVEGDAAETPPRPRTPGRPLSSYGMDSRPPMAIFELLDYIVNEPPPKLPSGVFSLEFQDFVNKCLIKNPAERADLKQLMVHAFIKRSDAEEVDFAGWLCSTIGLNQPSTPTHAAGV
Sequence of RAF proto-oncogene serine/threonine-protein kinase (P04049 whole entry): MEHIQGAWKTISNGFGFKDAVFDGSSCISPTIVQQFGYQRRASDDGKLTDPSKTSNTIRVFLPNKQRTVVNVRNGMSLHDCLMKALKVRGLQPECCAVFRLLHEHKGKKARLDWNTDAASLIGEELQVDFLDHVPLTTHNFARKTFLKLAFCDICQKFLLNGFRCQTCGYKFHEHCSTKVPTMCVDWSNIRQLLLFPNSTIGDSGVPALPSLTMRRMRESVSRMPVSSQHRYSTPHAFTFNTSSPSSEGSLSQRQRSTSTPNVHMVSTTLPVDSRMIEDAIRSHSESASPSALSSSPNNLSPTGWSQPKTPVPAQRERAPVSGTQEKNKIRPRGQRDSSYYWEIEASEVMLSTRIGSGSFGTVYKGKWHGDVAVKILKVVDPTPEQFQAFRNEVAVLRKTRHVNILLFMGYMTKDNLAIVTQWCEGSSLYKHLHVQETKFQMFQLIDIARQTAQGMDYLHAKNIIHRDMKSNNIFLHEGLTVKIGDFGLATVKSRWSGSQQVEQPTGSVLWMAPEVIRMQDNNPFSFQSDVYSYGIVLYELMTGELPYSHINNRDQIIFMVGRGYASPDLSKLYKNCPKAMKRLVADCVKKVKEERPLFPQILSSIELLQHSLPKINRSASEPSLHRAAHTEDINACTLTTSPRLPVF
Sequence of Mitogen-activated protein kinase 13 (O15264 whole entry): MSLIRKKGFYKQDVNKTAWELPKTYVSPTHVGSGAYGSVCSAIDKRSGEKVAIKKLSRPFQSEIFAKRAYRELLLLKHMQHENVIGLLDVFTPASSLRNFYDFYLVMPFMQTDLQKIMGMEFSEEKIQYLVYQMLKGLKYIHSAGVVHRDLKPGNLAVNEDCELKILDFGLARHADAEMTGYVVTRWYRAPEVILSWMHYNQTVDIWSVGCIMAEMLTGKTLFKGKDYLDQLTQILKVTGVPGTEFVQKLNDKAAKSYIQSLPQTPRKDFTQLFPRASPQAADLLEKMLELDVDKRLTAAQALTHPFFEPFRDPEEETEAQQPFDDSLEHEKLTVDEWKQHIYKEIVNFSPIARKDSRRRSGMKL
Sequence of Vascular endothelial growth factor receptor 2 (P35968 whole entry): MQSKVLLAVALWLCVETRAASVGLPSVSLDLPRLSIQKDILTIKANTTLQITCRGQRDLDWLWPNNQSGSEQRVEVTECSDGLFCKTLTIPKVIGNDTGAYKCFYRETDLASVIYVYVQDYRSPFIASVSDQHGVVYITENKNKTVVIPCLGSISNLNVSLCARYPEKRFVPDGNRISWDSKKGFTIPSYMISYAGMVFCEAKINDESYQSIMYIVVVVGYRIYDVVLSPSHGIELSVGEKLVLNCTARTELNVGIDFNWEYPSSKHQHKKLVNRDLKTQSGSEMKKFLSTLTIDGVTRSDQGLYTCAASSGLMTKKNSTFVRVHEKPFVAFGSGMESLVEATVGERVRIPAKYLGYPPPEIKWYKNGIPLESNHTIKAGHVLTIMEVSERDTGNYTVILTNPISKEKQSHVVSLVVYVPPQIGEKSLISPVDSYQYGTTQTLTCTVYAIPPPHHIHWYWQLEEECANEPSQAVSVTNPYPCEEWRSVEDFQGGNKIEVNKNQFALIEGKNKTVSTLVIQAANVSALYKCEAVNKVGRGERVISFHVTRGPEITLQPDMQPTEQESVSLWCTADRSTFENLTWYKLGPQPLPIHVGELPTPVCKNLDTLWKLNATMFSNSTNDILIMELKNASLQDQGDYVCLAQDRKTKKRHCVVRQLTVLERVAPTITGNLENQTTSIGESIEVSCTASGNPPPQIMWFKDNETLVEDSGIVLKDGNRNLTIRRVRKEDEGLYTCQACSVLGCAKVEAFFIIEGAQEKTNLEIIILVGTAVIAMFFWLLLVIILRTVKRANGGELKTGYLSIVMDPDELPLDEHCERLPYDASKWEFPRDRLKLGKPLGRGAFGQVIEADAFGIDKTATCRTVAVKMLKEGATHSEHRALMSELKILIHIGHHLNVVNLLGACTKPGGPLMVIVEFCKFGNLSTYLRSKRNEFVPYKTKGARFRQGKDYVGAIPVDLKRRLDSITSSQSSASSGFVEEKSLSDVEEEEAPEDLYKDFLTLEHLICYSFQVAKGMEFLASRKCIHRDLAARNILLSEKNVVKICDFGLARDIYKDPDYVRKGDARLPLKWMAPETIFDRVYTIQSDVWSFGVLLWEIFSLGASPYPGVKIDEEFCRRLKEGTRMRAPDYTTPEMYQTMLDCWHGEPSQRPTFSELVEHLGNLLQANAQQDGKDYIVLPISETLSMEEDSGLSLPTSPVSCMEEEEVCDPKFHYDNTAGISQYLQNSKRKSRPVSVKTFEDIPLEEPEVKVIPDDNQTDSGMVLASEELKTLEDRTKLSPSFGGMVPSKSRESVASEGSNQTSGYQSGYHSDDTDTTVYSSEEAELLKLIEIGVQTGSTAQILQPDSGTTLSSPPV
Sequence of Tyrosine-protein kinase Lck (P06239 whole entry): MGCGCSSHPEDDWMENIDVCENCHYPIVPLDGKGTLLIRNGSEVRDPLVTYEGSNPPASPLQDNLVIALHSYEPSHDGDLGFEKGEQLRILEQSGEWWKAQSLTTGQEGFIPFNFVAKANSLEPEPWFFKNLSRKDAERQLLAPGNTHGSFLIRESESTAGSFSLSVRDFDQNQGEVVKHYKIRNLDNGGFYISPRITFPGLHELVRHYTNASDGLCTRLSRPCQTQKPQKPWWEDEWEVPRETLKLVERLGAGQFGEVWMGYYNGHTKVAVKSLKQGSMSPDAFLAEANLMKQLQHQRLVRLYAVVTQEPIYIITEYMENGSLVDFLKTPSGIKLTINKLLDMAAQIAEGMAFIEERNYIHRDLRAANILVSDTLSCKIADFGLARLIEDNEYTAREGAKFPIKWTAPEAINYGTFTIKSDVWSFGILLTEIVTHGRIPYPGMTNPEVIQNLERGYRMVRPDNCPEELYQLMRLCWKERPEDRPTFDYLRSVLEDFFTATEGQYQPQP

`CNc1nc(Nc2cc(C(=O)NOC)ccc2C)c(C#N)c(N(C)CC(C)(C)C)n1` gave an IC50 (PBMC) of 64 µM.
`CONC(=O)c1ccc(C)c(Nc2ncnc(N(C)CC(C)(C)C)c2C#N)c1` gave an IC50 (PBMC) of 42 µM.
In the case of `CCn1nccc1NC(=O)c1ccc(C)c(Nc2ncnc(NC(C)C)c2C#N)c1`, the IC50 (PBMC) is reported as 130 µM.
Work on `CONC(=O)c1ccc(C)c(Nc2nc(N3CCCN(C)CC3)nc(N(C)CC(C)(C)C)c2C#N)c1` yielded an IC50 (PBMC) of 0.33 µM.
`Cc1ccc(C(=O)Nc2ccon2)cc1Nc1nc(N)nc(NC(C)C)c1C#N` showed an IC50 (PBMC) of 18 µM.
`Cc1ccc(C(=O)Nc2ccon2)cc1Nc1nc(N)nc(NC2CCCC2)c1C#N` showed an IC50 (PBMC) of 1.5 µM.
In the case of `CNc1ncnc(Nc2cc(C(=O)NOC)ccc2C)c1C#N`, the IC50 (PBMC) is reported as > 250 µM.
For `CCn1nccc1NC(=O)c1ccc(C)c(Nc2ncnc(NC3CCCC3)c2C#N)c1`, the IC50 (PBMC) was 72 µM.
`CCn1nccc1NC(=O)c1ccc(C)c(Nc2nc(N)nc(NC3CCCC3)c2C#N)c1` gave an IC50 (PBMC) of 21 µM.
For `Cc1ccc(C(=O)Nc2ccon2)cc1Nc1ncnc(NC(C)C)c1C#N`, the clearance [1] was 28.3 mL/min/kg, the Papp [2] was 23.9 ×10⁻⁶ cm/s and the Metabolic rate [3] was 0.012 nmol/min*mg of protein. The bioavailability [4] was 100%, the Control (PHA-Ly) was 82% and the Metabolic rate [5] was 0.22 nmol/min*mg of protein. The half-life [6] was 1.7 h and the IC50 (PBMC) was 8.7 µM.
Compound `CONC(=O)c1ccc(C)c(Nc2ncnc(NC3CCCC3)c2C#N)c1` has a Ki (MAP kinase p38) of 0.00042 µM and an IC50 (PBMC) of 4.1 µM.
`CONC(=O)c1ccc(C)c(Nc2nc(N)nc(N(C)CC(C)(C)C)c2C#N)c1` gave an IC50 (PBMC) of 17 µM.
For `CCn1nccc1NC(=O)c1ccc(C)c(Nc2nc(N)nc(NC(C)C)c2C#N)c1`, the IC50 (PBMC) was 67 µM.
`CONC(=O)c1ccc(C)c(Nc2ncnc(NC(C)C)c2C#N)c1` showed an IC50 (PBMC) of 4.6 µM.
For `CCCNc1ncnc(Nc2cc(C(=O)NOC)ccc2C)c1C#N`, the IC50 (PBMC) was 158 µM.
For `Cc1ccc(C(=O)Nc2ccon2)cc1Nc1ncnc(NC2CCCC2)c1C#N`, the IC50 [7] was > 25 µM, the IC50 [8] was > 50 µM and the IC50 [9] was > 50 µM. For the same compound, the IC50 [10] was > 30 µM, the IC50 [11] was > 50 µM and the IC50 [12] was > 100 µM. For the same compound, the IC50 [13] was > 10 µM, the IC50 [14] was > 50 µM and the IC50 [15] was > 5 µM. For the same compound, the IC50 [16] was > 50 µM, the IC50 [17] was > 50 µM and the IC50 [18] was > 50 µM. For the same compound, the IC50 (Protein kinase C (PKC)) was > 50 µM, the IC50 [19] was > 50 µM and the IC50 [20] was > 30 µM. The IC50 [21] was > 50 µM, the IC50 [22] was < 0.1 µM and the IC50 [23] was > 50 µM. For the same compound, the IC50 [24] was > 30 µM, the IC50 (PBMC) was 3.5 µM and the IC50 [25] was > 50 µM. For the same compound, the IC50 [26] was > 50 µM, the IC50 [27] was > 30 µM and the IC50 [28] was 0.0041 µM.
